# Assay results as given in paper PMC9909988, “Procoxacin bidirectionally inhibits osteoblastic and osteoclastic activity in bone and suppresses bone metastasis of prostate cancer” (Journal of Experimental & Clinical Cancer Research : CR, 2023).
# Biological target: T1, 14–3-3ζ (Homo sapiens, UniProt P63104)
# T1 construct: gene YWHAZ
# Experiment: SPR (Biacore T200, […]-3ζ ab87361 captured on NTA chip); supported by Pro-conjugated magnetic bead pull-down from C4-2B lysate
# Assay type: binding
# T1 sequence (P63104 whole entry): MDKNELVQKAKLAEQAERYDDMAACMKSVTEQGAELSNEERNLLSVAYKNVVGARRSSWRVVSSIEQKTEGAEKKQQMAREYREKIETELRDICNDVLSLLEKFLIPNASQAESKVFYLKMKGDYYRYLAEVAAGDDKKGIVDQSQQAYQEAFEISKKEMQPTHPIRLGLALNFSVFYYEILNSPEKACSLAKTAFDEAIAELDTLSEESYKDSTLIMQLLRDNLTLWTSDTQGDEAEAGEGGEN
compound,measurement,value
"CC[C@@H](C(=O)[C@@H](C)[C@@H](O)[C@H](C)[C@@H]1O[C@@H]([C@@H](CC)C(=O)O)CC[C@@H]1C)[C@H]1O[C@]2(C=C[C@@H](O)[C@]3(CC[C@@](C)([C@H]4CC[C@](O)(CC)[C@H](C)O4)O3)O2)[C@H](C)C[C@@H]1C [Pro, Procoxacin]",Kd,1930 nM
